Test results reported in patent US20150087722A1, “TREATMENT FOR BREAST TUMOR CELL METASTASIS” (China Medical University, priority 2012, published 2015).

Assays:
Assay in all cases: western blotting of EMT-related proteins
Assay type in all cases: cell-based, human
[1] = system: EMT-related proteins in breast tumor cells MCF-7; settings: MCF-7, 10, 15 and 20 μM, 24 h, with dose increasing
Method: (§1) FIG. 2A illustrates the expression results of EMT-related proteins in breast tumor cells MDA-MB-231 after the breast tumor cells MDA-MB-231 have been respectively cultured under compound II having concentrations of 0, 0.5, 1 and 2 μM for 24 h; and FIG. 2B illustrates the expression results of EMT-related proteins in breast tumor cells MCF-7 after the breast tumor cells MCF-7 have been respectively cultured under the compound II having concentrations of 0, 10, 15 and 20 μM for 24 h. FIG. 3A illustrates the western blotting results of EMT-related proteins in the breast tumor cells MDA-MB-468, where the breast tumor cells MDA-MB-468 are treated with the compound I having concentrations of 0, 0.5, 1 and 2 μM for 24 h, and FIG. 3B illustrates the western blotting results of EMT-related proteins in the breast tumor cells MDA-MB-435, where the breast tumor cells MDA-MB-435 are treated with the compound I having concentrations of 0, 2.5, 5 and 7.5 μM for 24 h. FIG. 4 illustrates the western blotting results of EMT-related proteins in the human normal breast cells MCF-10A stimulated by TNF-α/TGF-β, where the human normal breast cells MCF-10A are treated with the compound I having concentrations of 2 μM for 24 h. The human normal breast cells stimulated by TNF-α/TGF-β can cause TNF-α/TGF-β-induced EMT in the human normal breast cells MCF-10A. The steps of western blotting include: washing cells with PBS twice at 4° C.; adding a lysis buffer and rubbing the cells by a rubbr policeman so as to lyse cells; putting the lysed cell solution into a 1.5 ml microcentrifuge tube and shaking for 1 min; centrifuging at 12000 rpm for 10 min and taking the supernatant; measuring concentration of the protein through a Bio-Rad protein assay kit; and storing the remained extracted protein solution at −70° C.; taking 100 μg protein solution and adding a SDS/protein loading buffer having the same volume, where the SDS/protein loading buffer has a concentration two times larger than the protein solution; boiling the mixture of the protein solution and the SDS/protein loading buffer at 100° C. for 10 min; cooling and loading the protein samples in each hole of gel; adjusting the voltage to 100 V and running the protein samples on the gel until the tracking dye in the sample buffer reaches the bottom of the gel; and subsequently transferring the protein from the gel using electrophoresis. A PVDF membrane was soaked in methanol until the paper was totally wet. The paper was arranged in a transfer tank placed in a 4° C. ice box, and the protein transfer was performed at a current of […] for 4 h. The PVDF membrane was then taken out, placed in a PBS blocking solution including 1% BSA and shaken for 2 h. Then the PVDF membrane was placed in a blocking solution including a primary antibody and slowly shaken at 100 rpm for 1 h at the room temperature. Subsequently the PVDF membrane was washed with PBST for third times, each time for 3-5 min. According to different […] and different dilution ratios, the PVDF membrane was shaken for 2 h on a horizontal rotator and then washed with PBST for three times. Then luminescence image equipment was used, where the PVDF was placed onto a black metal plate by a plastic pincer and the face including protein was upwards, a 1:1 mixed Chemiluminesent Substrate was added into the membrane and the exposure time depends on the fluorescence intensity of antibodies.

[2] = system: EMT-related proteins in breast tumor cells MDA-MB-435; settings: MDA-MB-435, 2.5, 5 and 7.5 μM, 24 h, with dose increasing
Method: as §1

[3] = system: EMT-related proteins in breast tumor cells MDA-MB-468; settings: MDA-MB-468, 0.5, 1 and 2 μM, 24 h, with dose increasing
Method: as §1

COC1=C(OC)C(=O)C(C)=C(C)C1=O [compound II]
expression amount of E-cadherin, p-β-catenin and occludin [1]: increased | expression amount of proteins facilitating tumor cell proliferation (Twist, Snail, vimentin, β-catenin) [1]: decreased

COC1=C(OC)C(=O)C(C)=CC1=O [compound I]
expression amount of E-cadherin and occludin [2]: increased | expression amount of proteins facilitating tumor cell proliferation (Snail, vimentin, β-catenin) [2]: decreased | expression amount of E-cadherin and occludin [3]: increased | expression amount of proteins facilitating tumor cell proliferation (Snail, vimentin, β-catenin) [3]: decreased
